The values that follow come from US20190292155A1, “THERAPEUTIC INHIBITORY COMPOUNDS” (LifeSci Pharmaceuticals, Inc., priority 2016, published 2019).

For orientation: pIC50 means the negative decadic logarithm of the IC50, by convention in mol/L.

This experiment addresses T1, human complement factor D (Homo sapiens, UniProt P00746).
T1 construct: purchased R&D Systems 1824-SE
As to the kind of experiment: In vitro enzyme inhibition of human complement factor D (Z-Lys-SBzl/DTNB, A405). It counts as biochemical. An outline of the steps:
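Buffer 50 mM Tris/HCl pH 7.5, 1 M NaCl, 0.5% final DMSO; compounds pre-incubated with enzyme 5 min at room temperature, then Z-Lys-SBzl with DTNB added (each diluted to 200 μM before addition).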

Where [1] appears, read: biochemical assay, substrate Z-Lys-SBzl, read-out: CFD IC50.

pIC50: −log10 of the molar value. Like-named read-outs stand apart in the source and are kept apart here.

T1 sequence (P00746 26-253): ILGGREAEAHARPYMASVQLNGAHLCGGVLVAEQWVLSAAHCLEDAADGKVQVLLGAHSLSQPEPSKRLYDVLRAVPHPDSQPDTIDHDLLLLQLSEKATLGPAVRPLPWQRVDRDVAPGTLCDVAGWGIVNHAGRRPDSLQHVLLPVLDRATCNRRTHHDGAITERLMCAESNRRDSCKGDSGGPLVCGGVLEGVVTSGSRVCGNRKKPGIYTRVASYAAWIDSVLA

Regarding `NC(=O)c1nn(CC(=O)N(CC(=O)NCc2cc(F)cc(Cl)c2)C2CC2)c2ccccc12` [Example 103, 1-(2-((2-((3-chloro-5-fluorobenzyl)amino)-2-oxoethyl)(cyclopropyl)amino)-2-oxoethyl)-1H-indazole-3-carboxamide], under setting [1], the pIC50 was 6.00 to 7.00. Still for that read-out and setting: the result for `NC(=O)c1nn(CC(=O)N(CC(=O)NCc2ccc(Cl)c(Cl)c2)C2CC2)c2ccccc12` [Example 104, 1-(2-(cyclopropyl(2-((3,4-dichlorobenzyl)amino)-2-oxoethyl)amino)-2-oxoethyl)-1H-indazole-3-carboxamide] reads 5.00 to 6.00.

As for `COCC(C)N(CC(=O)NCc1cccc(Cl)c1F)C(=O)Cn1nc(C(N)=O)c2ccccc21` (stereo not shown) [Example 68, 1-(2-((2-((3-chloro-2-fluorobenzyl)amino)-2-oxoethyl)(1-methoxypropan-2-yl)amino)-2-oxoethyl)-1H-indazole-3-carboxamide], under setting [1], the pIC50 was 6.00 to 7.00. Same read-out and setting: the result for `NC(=O)c1nn(CC(=O)N(CC(=O)NCc2ccc(N)cc2F)C2CC2)c2ccccc12` [Example 121, 1-(2-((2-((4-amino-2-fluorobenzyl)amino)-2-oxoethyl)(cyclopropyl)amino)-2-oxoethyl)-1H-indazole-3-carboxamide] reads 5.00 to 6.00; that for `NC(=O)CC(C1CC1)N(CC(=O)NCc1cccc(Cl)c1F)C(=O)Cn1nc(C(N)=O)c2ccccc21` (stereo not shown) [Example 75, 1-(2-((3-amino-1-cyclopropyl-3-oxopropyl)(2-((3-chloro-2-fluorobenzyl)amino)-2-oxoethyl)amino)-2-oxoethyl)-1H-indazole-3-carboxamide], 5.00 to 6.00. For `O=C(CN(C(=O)Cn1nc(-c2ncc[nH]2)c2ccccc21)C1CC1)NCc1cccc(Cl)c1F` [Example 98, 2-(3-(1H-imidazol-2-yl)-1H-indazol-1-yl)-N-(2-((3-chloro-2-fluorobenzyl)amino)-2-oxoethyl)-N-cyclopropylacetamide], under setting [1], the pIC50 is 5.00 to 6.00. On the same count and under the same terms, the result for `NC(=O)c1nn(CC(=O)N(CC(=O)NCc2cc(Cl)c3[nH]ncc3c2)C2CC2)c2ccccc12` [Example 114, 1-(2-((2-(((7-chloro-1H-indazol-5-yl)methyl)amino)-2-oxoethyl)(cyclopropyl)amino)-2-oxoethyl)-1H-indazole-3-carboxamide] reads 5.00 to 6.00; that for `NC(=O)c1nn(CC(=O)N(CC(=O)NCc2cccc(Cl)c2C(F)(F)F)C2CC2)c2ccccc12` [Example 135, 1-(2-((2-((3-chloro-2-(trifluoromethyl)benzyl)amino)-2-oxoethyl)(cyclopropyl)amino)-2-oxoethyl)-1H-indazole-3-carboxamide], 5.00 to 6.00. As to `NC(=O)c1nn(CC(=O)N(CC(=O)NCc2cc(Cl)cc(Cl)c2)C2CC2)c2ccccc12` [Example 119, 1-(2-(cyclopropyl(2-((3,5-dichlorobenzyl)amino)-2-oxoethyl)amino)-2-oxoethyl)-1H-indazole-3-carboxamide], the negative logarithm of the IC50 (pIC50) under setting [1] is 6.00 to 7.00. `NC(=O)c1nn(CC(=O)N(CC(=O)NCc2cccc(Cl)c2F)C2CC2)cc1Br` [Example 46, 4-bromo-1-(2-((2-((3-chloro-2-fluorobenzyl)amino)-2-oxoethyl)(cyclopropyl)amino)-2-oxoethyl)-1H-pyrazole-3-carboxamide]: the pIC50 under setting [1] was 5.00 to 6.00. Same read-out and setting: the result for `N#Cc1cc(Cl)c(F)c(CNC(=O)CN(C(=O)Cn2nc(C(N)=O)c3ccccc32)C2CC2)c1` [Example 90, 1-(2-((2-((3-chloro-5-cyano-2-fluorobenzyl)amino)-2-oxoethyl)(cyclopropyl)amino)-2-oxoethyl)-1H-indazole-3-carboxamide] reads 5.00 to 6.00. As for `N#Cc1ccc(CNC(=O)CN(C(=O)Cn2nc(C(N)=O)c3ccccc32)C2CC2)c(F)c1Cl` [Example 96, 1-(2-((2-((3-chloro-4-cyano-2-fluorobenzyl)amino)-2-oxoethyl)(cyclopropyl)amino)-2-oxoethyl)-1H-indazole-3-carboxamide], the pIC50 under setting [1] was 5.00 to 6.00.

Regarding `NC(=O)c1nn(CC(=O)N(CC(=O)NCc2cccc(Cl)c2F)Cc2ccncc2)c2ccccc12` [Example 32, 1-(2-((2-((3-chloro-2-fluorobenzyl)amino)-2-oxoethyl)(pyridin-4-ylmethyl)amino)-2-oxoethyl)-1H-indazole-3-carboxamide], the pIC50 under setting [1] is 5.00 to 6.00.

Consider `NC(=O)c1nn(CC(=O)N(CC(=O)NCc2ccc(F)c(Cl)c2)C2CC2)c2ccccc12` [Example 108, 1-(2-((2-((3-chloro-4-fluorobenzyl)amino)-2-oxoethyl)(cyclopropyl)amino)-2-oxoethyl)-1H-indazole-3-carboxamide], for which the pIC50 under setting [1] was 5.00 to 6.00.

Take `NC(=O)c1nn(CC(=O)N(CC(=O)NCc2cc(Cl)cc3cn[nH]c23)C2CC2)c2ccccc12` [Example 109, 1-(2-((2-(((5-chloro-1H-indazol-7-yl)methyl)amino)-2-oxoethyl)(cyclopropyl)amino)-2-oxoethyl)-1H-indazole-3-carboxamide]: the pIC50 under setting [1] was 5.00 to 6.00. Same read-out and setting: the result for `NC(=O)c1nc(CC(=O)N(CC(=O)NCc2cccc(Cl)c2F)C2CC2)c2ccccn12` [Example 138, 1-(2-((2-((3-chloro-2-fluorobenzyl)amino)-2-oxoethyl)(cyclopropyl)amino)-2-oxoethyl)imidazo[1,5-a]pyridine-3-carboxamide] reads 6.00 to 7.00; that for `NC(=O)c1nn(CC(=O)N(CC(=O)NCc2cc(Cl)cc3ccoc23)C2CC2)c2ccccc12` [Example 110, 1-(2-((2-(((5-chlorobenzofuran-7-yl)methyl)amino)-2-oxoethyl)(cyclopropyl)amino)-2-oxoethyl)-1H-indazole-3-carboxamide], 6.00 to 7.00. Turning to `C[C@H](C(=O)NCc1cccc(Cl)c1F)N(C(=O)Cn1nc(C(N)=O)c2ccccc21)C1CC1` [Example 38, (R)-1-(2-((1-((3-chloro-2-fluorobenzyl)amino)-1-oxopropan-2-yl)(cyclopropyl)amino)-2-oxoethyl)-1H-indazole-3-carboxamide], the pIC50 under setting [1] is 5.00 to 6.00. As for `CC(=O)c1nc(CC(=O)N(CC(=O)NCc2cccc(Cl)c2F)C2CC2)c2ccccn12` [Example 137, 2-(3-acetylimidazo[1,5-a]pyridin-1-yl)-N-(2-((3-chloro-2-fluorobenzyl)amino)-2-oxoethyl)-N-cyclopropylacetamide], the pIC50 under setting [1] is 5.00 to 6.00. On the same count and under the same terms, the result for `NC(=O)c1nn(CC(=O)N(CC(=O)NCc2cccc(Cl)c2F)Cc2cccnc2)c2ccccc12` [Example 35, 1-(2-((2-((3-chloro-2-fluorobenzyl)amino)-2-oxoethyl)(pyridin-3-ylmethyl)amino)-2-oxoethyl)-1H-indazole-3-carboxamide] reads 5.00 to 6.00. Same read-out and setting: the result for `NC(=O)c1nn(CC(=O)N(CC(=O)NCc2cccc(Cl)c2F)C(CC(=O)O)C(F)(F)F)c2ccccc12` (stereo not shown) [Example 79, 3-(2-(3-carbamoyl-1H-indazol-1-yl)-N-(2-((3-chloro-2-fluorobenzyl)amino)-2-oxoethyl)acetamido)-4,4,4-trifluorobutanoic acid] reads 5.00 to 6.00. `CC(CO)N(CC(=O)NCc1cccc(Cl)c1F)C(=O)Cn1nc(C(N)=O)c2ccccc21` (stereo not shown) [Example 58, 1-(2-((2-((3-chloro-2-fluorobenzyl)amino)-2-oxoethyl)(1-hydroxypropan-2-yl)amino)-2-oxoethyl)-1H-indazole-3-carboxamide] gave a pIC50 of 6.00 to 7.00.
